Results taken from PubChem BioAssay (NCI).
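Growth conditions: 96-well plates. Treatment: test compound, 48 hours, 5 concentrations. Analysis: linear interpolation between bracketing concentrations; unreached endpoints set to highest concentration. GI50: concentration for 50% inhibition of growth. TGI is the concentration that stops growth completely.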

How the values were obtained:
Experiment in all cases: NCI-60 cell line screen, 48 h
MOLT-4 leukemia = test system: MOLT-4 leukemia
MDA-MB-231 breast = test system: MDA-MB-231 breast
HS 578T breast = test system: HS 578T breast
HCT-116 colon = test system: HCT-116 colon
SW-620 colon = test system: SW-620 colon
U251 CNS = test system: U251 CNS
RPMI-8226 leukemia = test system: RPMI-8226 leukemia
HCT-15 colon = test system: HCT-15 colon
SK-MEL-2 melanoma = test system: SK-MEL-2 melanoma
UO-31 renal = test system: UO-31 renal
MALME-3M melanoma = test system: MALME-3M melanoma
SR leukemia = test system: SR leukemia
CCRF-CEM leukemia = test system: CCRF-CEM leukemia
MDA-MB-435 = test system: MDA-MB-435
NCI-H522 lung = test system: NCI-H522 lung
NCI-H460 lung = test system: NCI-H460 lung
MDA-MB-468 breast = test system: MDA-MB-468 breast
K-562 leukemia = test system: K-562 leukemia
UACC-257 melanoma = test system: UACC-257 melanoma
M14 melanoma = test system: M14 melanoma
CAKI-1 renal = test system: CAKI-1 renal
SNB-19 CNS = test system: SNB-19 CNS
KM12 colon = test system: KM12 colon
TK-10 renal = test system: TK-10 renal
DU-145 prostate = test system: DU-145 prostate
NCI-H226 lung = test system: NCI-H226 lung
NCI/ADR-RES ovarian = test system: NCI/ADR-RES ovarian
HT29 colon = test system: HT29 colon
A498 renal = test system: A498 renal
HL-60(TB) leukemia = test system: HL-60(TB) leukemia
SNB-75 CNS = test system: SNB-75 CNS
HOP-62 NSCLC = test system: HOP-62 NSCLC
MCF7 breast = test system: MCF7 breast
RXF 393 renal = test system: RXF 393 renal
LOX IMVI melanoma = test system: LOX IMVI melanoma
UACC-62 melanoma = test system: UACC-62 melanoma
SF-295 CNS = test system: SF-295 CNS
SK-OV-3 ovarian = test system: SK-OV-3 ovarian
OVCAR-3 ovarian = test system: OVCAR-3 ovarian
OVCAR-4 ovarian = test system: OVCAR-4 ovarian
SN12C renal = test system: SN12C renal
HOP-92 NSCLC = test system: HOP-92 NSCLC
COLO 205 colon = test system: COLO 205 colon
SK-MEL-5 melanoma = test system: SK-MEL-5 melanoma
PC-3 prostate = test system: PC-3 prostate
SK-MEL-28 melanoma = test system: SK-MEL-28 melanoma
SF-268 CNS = test system: SF-268 CNS
IGROV1 ovarian = test system: IGROV1 ovarian
OVCAR-5 ovarian = test system: OVCAR-5 ovarian
ACHN renal = test system: ACHN renal
T-47D breast = test system: T-47D breast
A549 NSCLC = test system: A549 NSCLC
NCI-H23 lung = test system: NCI-H23 lung
EKVX NSCLC = test system: EKVX NSCLC
HCC-2998 colon = test system: HCC-2998 colon
SF-539 CNS = test system: SF-539 CNS
786-0 renal = test system: 786-0 renal
OVCAR-8 ovarian = test system: OVCAR-8 ovarian
BT-549 breast = test system: BT-549 breast

COc1cc2oc(-c3cccc(C(=O)Nc4ccc(Cl)cc4)c3)cc(=O)c2c(OCCNC(=O)[C@H](CO)NC(=O)OC(C)(C)C)c1OC
GI50 (MOLT-4 leukemia): 3.2 µM
TGI (MOLT-4 leukemia): 21.8 µM
GI50 (MDA-MB-231 breast): 4.7 µM
TGI (MDA-MB-231 breast): 33.9 µM
GI50 (HS 578T breast): 8.01 µM
TGI (HS 578T breast): 94.6 µM
GI50 (HCT-116 colon): 6.03 µM
TGI (HCT-116 colon): > 100 µM
GI50 (SW-620 colon): 30.1 µM
TGI (SW-620 colon): > 100 µM
GI50 (U251 CNS): 17.8 µM
TGI (U251 CNS): > 100 µM
GI50 (RPMI-8226 leukemia): 2.85 µM
TGI (RPMI-8226 leukemia): > 100 µM
GI50 (HCT-15 colon): 7.43 µM
TGI (HCT-15 colon): > 100 µM
GI50 (SK-MEL-2 melanoma): 15.4 µM
TGI (SK-MEL-2 melanoma): > 100 µM
GI50 (UO-31 renal): 19.9 µM
TGI (UO-31 renal): > 100 µM
GI50 (MALME-3M melanoma): 11 µM
TGI (MALME-3M melanoma): 51.5 µM
GI50 (SR leukemia): 3.01 µM
TGI (SR leukemia): 18.2 µM
GI50 (CCRF-CEM leukemia): 5.54 µM
TGI (CCRF-CEM leukemia): > 100 µM
GI50 (MDA-MB-435): 12.4 µM
TGI (MDA-MB-435): 42.6 µM
GI50 (NCI-H522 lung): 5.18 µM
TGI (NCI-H522 lung): > 100 µM
GI50 (NCI-H460 lung): 6.48 µM
TGI (NCI-H460 lung): > 100 µM
GI50 (MDA-MB-468 breast): 13.9 µM
TGI (MDA-MB-468 breast): 35 µM
GI50 (K-562 leukemia): 4.23 µM
TGI (K-562 leukemia): > 100 µM
GI50 (UACC-257 melanoma): 12.6 µM
TGI (UACC-257 melanoma): 27.8 µM
GI50 (M14 melanoma): 8.53 µM
TGI (M14 melanoma): 55.6 µM
GI50 (CAKI-1 renal): 5.8 µM
TGI (CAKI-1 renal): > 100 µM
GI50 (SNB-19 CNS): 28.8 µM
TGI (SNB-19 CNS): > 100 µM
GI50 (KM12 colon): 28.7 µM
TGI (KM12 colon): > 100 µM
GI50 (TK-10 renal): 19.9 µM
TGI (TK-10 renal): > 100 µM
GI50 (DU-145 prostate): 17.8 µM
TGI (DU-145 prostate): > 100 µM
GI50 (NCI-H226 lung): 13.8 µM
TGI (NCI-H226 lung): > 100 µM
GI50 (NCI/ADR-RES ovarian): 51.4 µM
TGI (NCI/ADR-RES ovarian): > 100 µM
GI50 (HT29 colon): 6.92 µM
TGI (HT29 colon): 57.4 µM
GI50 (A498 renal): 27.2 µM
TGI (A498 renal): 77.9 µM
GI50 (HL-60(TB) leukemia): 5.41 µM
TGI (HL-60(TB) leukemia): 22.1 µM
GI50 (SNB-75 CNS): 8.45 µM
TGI (SNB-75 CNS): > 100 µM
GI50 (HOP-62 NSCLC): 16.1 µM
TGI (HOP-62 NSCLC): > 100 µM
GI50 (MCF7 breast): 10.1 µM
TGI (MCF7 breast): > 100 µM
GI50 (RXF 393 renal): 4.2 µM
TGI (RXF 393 renal): 22 µM
GI50 (LOX IMVI melanoma): 3.82 µM
TGI (LOX IMVI melanoma): 20.7 µM
GI50 (UACC-62 melanoma): 20.3 µM
TGI (UACC-62 melanoma): > 100 µM
GI50 (SF-295 CNS): 12.4 µM
TGI (SF-295 CNS): 53.2 µM
GI50 (SK-OV-3 ovarian): 79.2 µM
TGI (SK-OV-3 ovarian): > 100 µM
GI50 (OVCAR-3 ovarian): 10.8 µM
TGI (OVCAR-3 ovarian): > 100 µM
GI50 (OVCAR-4 ovarian): 9.86 µM
TGI (OVCAR-4 ovarian): > 100 µM
GI50 (SN12C renal): 8.47 µM
TGI (SN12C renal): > 100 µM
GI50 (HOP-92 NSCLC): 4.24 µM
TGI (HOP-92 NSCLC): > 100 µM
GI50 (COLO 205 colon): 7.16 µM
TGI (COLO 205 colon): 71.6 µM
GI50 (SK-MEL-5 melanoma): 5.48 µM
TGI (SK-MEL-5 melanoma): 19.6 µM
GI50 (PC-3 prostate): 6.82 µM
TGI (PC-3 prostate): > 100 µM
GI50 (SK-MEL-28 melanoma): 9.5 µM
TGI (SK-MEL-28 melanoma): 28.2 µM
GI50 (SF-268 CNS): 21.5 µM
TGI (SF-268 CNS): > 100 µM
GI50 (IGROV1 ovarian): 10.7 µM
TGI (IGROV1 ovarian): > 100 µM
GI50 (OVCAR-5 ovarian): 8.01 µM
TGI (OVCAR-5 ovarian): > 100 µM
GI50 (ACHN renal): 19.5 µM
TGI (ACHN renal): > 100 µM
GI50 (T-47D breast): 5.63 µM
TGI (T-47D breast): > 100 µM
GI50 (A549 NSCLC): 10.5 µM
TGI (A549 NSCLC): > 100 µM
GI50 (NCI-H23 lung): 14.9 µM
TGI (NCI-H23 lung): > 100 µM
GI50 (EKVX NSCLC): 9.89 µM
TGI (EKVX NSCLC): > 100 µM
GI50 (HCC-2998 colon): 15.5 µM
TGI (HCC-2998 colon): 74 µM
GI50 (SF-539 CNS): 12.1 µM
TGI (SF-539 CNS): 45 µM
GI50 (786-0 renal): 19.7 µM
TGI (786-0 renal): > 100 µM
GI50 (OVCAR-8 ovarian): 5.78 µM
TGI (OVCAR-8 ovarian): > 100 µM
GI50 (BT-549 breast): 3.06 µM
TGI (BT-549 breast): 19.9 µM
